# Test results taken from patent US20230114728A1 (Venatorx Pharmaceuticals, Inc., priority 2019, published 2023).
# pEC50: −log10 of the molar value.
# Tests used:
# [1] = molecular target: T1, E. coli K12 PBP1a (Escherichia coli, UniProt P02918); test: Radioligand competition binding assay with 14C-labeled boronic acid probe, E. coli PBP1a; settings: PBP1a/PBP1b at 0.1 μM, Compound A at 20 μM, read-out: EC50 (the concentration of inhibitor required to reduce binding of Compound A by 50%)
# T1 construct: made in house
# Excerpt: (§1) Example II: Experimental Method to Assess Binding to Penicillin-Binding Proteins: Radioligand Competition Binding Assay
# (§2) To determine the ability of boronic acid-based test PBP inhibitors to bind Penicillin Binding Proteins (PBPs), a radio-labelled boronic acid PBP inhibitor:
# was used in competition binding assays to determine boronic acid PBP inhibitor binding to PBP1a or PBP1b from Escherichia coli. PBP1a and PBP1b were purified as described previously (Bertsche, U.; et al., J Biol. Chem. 2005, 280 (45), 38096-38101; Born, P.; et al., J Biol. Chem. 2006. 281 (37), 26985-26993). To establish assay conditions for competition binding, an enzyme titration/saturation binding experiment was performed. Saturation binding was performed in a buffer comprised of 20 mM Tris (pH 7.5), 500 mM NaCl and 0.1% (v/v) TritonX-100, with PBP1a/PBP1b at a final concentration of 0.1 μM and Compound A at final concentrations ranging from 0-100 μM. […] The flow through, containing PBP bound with Compound A, was recovered and 100 μL mixed with 5 mL of UltimaGold liquid scintillation cocktail (Perkin Elmer), and the radioactivity counted using a Beckman Coulter LS 6500 Multipurpose scintillation counter. […] The flow through was recovered and 100 μl mixed with 5 ml of UltimaGold liquid scintillation cocktail and the radioactivity counted. […]
# [2] = molecular target: T2, E. coli K12 PBP1b (Escherichia coli, UniProt P02919); test: Radioligand competition binding assay with 14C-labeled boronic acid probe, E. coli PBP1b; settings: PBP1a/PBP1b at 0.1 μM, Compound A at 20 μM; E. coli PBP1b; read-out: EC50 (the concentration of inhibitor required to reduce binding of Compound A by 50%)
# T2 construct: made in house
# Excerpt: as §1, §2
# was used in competition binding assays to determine boronic acid PBP inhibitor binding to PBP1a or PBP1b from Escherichia coli. PBP1a and PBP1b were purified as described previously (Bertsche, U.; et al., J Biol. Chem. 2005, 280 (45), 38096-38101; Born, P.; et al., J Biol. Chem. 2006. 281 (37), 26985-26993). To establish assay conditions for competition binding, an enzyme titration/saturation binding experiment was performed. Saturation binding was performed in a buffer comprised of 20 mM Tris (pH 7.5), 500 mM NaCl and 0.1% (v/v) TritonX-100, with PBP1a/PBP1b at a final concentration of 0.1 μM and Compound A at final concentrations ranging from 0-100 μM. Mixtures were incubated for 60 minutes, then applied to Zeba Spin Desalting columns or plates (ThermoFisher Scientific) and centrifuged at 1000-1500×g for 2 minutes. The flow through, containing PBP bound with Compound A, was recovered and 100 μL mixed with 5 mL of UltimaGold liquid scintillation cocktail (Perkin Elmer), and the radioactivity counted using a Beckman Coulter LS 6500 Multipurpose scintillation counter. PBP binding of Compound A approached saturation at 20 μM of ^14C-labeled probe. The competition binding assay was validated using the beta-lactam ampicillin, with Compound A at a final concentration of 20 μM, PBP1a/PBP1b at a final concentration of 0.1 μM. PBP1a/PBP1b was incubated with ampicillin in a 96-well microplate for 60 minutes, then Compound A was added and the mixtures incubated for an additional 60 minutes. The mixtures were then applied to Zeba Spin desalting plates and centrifuged at 1000×g for 2 minutes. The flow through was recovered and 100 μl mixed with 5 ml of UltimaGold liquid scintillation cocktail and the radioactivity counted. […] Binding assays with boronic acid PBP inhibitors were performed in an identical fashion. […]
# T2 sequence (P02919 whole entry): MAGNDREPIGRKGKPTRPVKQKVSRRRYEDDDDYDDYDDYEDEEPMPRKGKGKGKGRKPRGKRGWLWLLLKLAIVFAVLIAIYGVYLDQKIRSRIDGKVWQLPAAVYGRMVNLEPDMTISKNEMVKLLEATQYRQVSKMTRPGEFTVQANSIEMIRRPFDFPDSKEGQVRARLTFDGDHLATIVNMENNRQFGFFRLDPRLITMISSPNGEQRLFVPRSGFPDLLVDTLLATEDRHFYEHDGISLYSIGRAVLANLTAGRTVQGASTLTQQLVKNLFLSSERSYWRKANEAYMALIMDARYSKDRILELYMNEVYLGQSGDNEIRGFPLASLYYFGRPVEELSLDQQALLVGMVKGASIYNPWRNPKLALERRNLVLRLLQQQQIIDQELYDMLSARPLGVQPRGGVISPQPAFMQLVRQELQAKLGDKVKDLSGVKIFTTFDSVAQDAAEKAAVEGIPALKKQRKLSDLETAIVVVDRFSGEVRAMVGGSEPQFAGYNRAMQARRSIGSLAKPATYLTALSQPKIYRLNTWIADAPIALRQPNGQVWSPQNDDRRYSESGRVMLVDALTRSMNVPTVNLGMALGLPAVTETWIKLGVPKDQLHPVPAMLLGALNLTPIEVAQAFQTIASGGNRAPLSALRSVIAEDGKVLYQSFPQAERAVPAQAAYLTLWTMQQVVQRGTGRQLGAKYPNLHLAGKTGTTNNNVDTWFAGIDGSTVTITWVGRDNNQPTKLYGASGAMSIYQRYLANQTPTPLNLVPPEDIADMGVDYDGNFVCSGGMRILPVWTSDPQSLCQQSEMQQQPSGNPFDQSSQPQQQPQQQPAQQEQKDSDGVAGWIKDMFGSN
# T1 sequence (P02918 whole entry): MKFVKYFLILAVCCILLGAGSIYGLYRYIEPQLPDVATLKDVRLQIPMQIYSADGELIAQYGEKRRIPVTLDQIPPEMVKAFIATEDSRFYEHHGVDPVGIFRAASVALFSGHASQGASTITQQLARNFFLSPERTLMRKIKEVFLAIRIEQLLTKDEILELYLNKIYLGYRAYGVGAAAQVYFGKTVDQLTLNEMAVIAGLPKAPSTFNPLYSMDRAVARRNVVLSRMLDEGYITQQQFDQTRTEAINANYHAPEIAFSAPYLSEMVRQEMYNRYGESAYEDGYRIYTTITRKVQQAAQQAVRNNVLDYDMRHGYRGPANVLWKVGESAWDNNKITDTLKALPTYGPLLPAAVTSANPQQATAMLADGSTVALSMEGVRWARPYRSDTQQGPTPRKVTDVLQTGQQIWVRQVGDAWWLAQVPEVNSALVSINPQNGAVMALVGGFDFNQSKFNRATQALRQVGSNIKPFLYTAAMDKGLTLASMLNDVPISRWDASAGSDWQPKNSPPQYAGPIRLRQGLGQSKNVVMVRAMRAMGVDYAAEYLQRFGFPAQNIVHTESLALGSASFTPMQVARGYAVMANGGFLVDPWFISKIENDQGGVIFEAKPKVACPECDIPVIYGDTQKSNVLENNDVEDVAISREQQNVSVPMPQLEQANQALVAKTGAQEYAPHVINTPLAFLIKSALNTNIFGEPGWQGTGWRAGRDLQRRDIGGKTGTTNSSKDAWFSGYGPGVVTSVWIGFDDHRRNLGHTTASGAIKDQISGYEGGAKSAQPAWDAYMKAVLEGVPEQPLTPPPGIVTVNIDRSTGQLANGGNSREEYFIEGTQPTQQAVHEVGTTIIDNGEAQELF
compound,measurement,setting,value
"CC1(C)S[C@@H]2[C@H](NC(=O)[C@H](N)c3ccccc3)C(=O)N2[C@H]1C(=O)O [ampicillin, reference compound]",pEC50,[1],> 6.30
same,pEC50,[2],> 6.30
